# From ChEMBL document CHEMBL1138463, “Structure-based design, synthesis, and characterization of inhibitors of human and Plasmodium falciparum dihydroorotate dehydrogenases” (J Med Chem, 2009)
# pIC50, pKi: −log10 of the molar value.
# What was measured:
# [1] = biological target: T1, Dihydroorotate dehydrogenase (Plasmodium falciparum, UniProt Q54A96)
# T1 sequence (Q54A96 whole entry): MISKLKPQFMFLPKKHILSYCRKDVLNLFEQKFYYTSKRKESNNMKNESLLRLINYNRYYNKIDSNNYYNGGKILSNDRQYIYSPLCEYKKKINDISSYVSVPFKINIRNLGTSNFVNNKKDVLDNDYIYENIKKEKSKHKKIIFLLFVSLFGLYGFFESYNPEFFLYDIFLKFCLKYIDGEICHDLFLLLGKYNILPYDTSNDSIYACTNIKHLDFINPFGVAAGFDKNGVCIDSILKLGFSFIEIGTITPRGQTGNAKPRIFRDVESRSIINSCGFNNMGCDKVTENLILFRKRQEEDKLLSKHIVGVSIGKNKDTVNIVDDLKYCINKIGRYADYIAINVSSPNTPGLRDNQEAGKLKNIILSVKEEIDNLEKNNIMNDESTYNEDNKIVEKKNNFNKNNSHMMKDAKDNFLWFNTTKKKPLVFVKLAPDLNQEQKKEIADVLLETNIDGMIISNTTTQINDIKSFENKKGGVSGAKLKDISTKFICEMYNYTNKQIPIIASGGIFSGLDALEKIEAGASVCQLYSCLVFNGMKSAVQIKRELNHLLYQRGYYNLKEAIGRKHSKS
# Description: Inhibition of ubiquinone binding site of Plasmodium falciparum dihydroorotate dehydrogenase
# [2] = biological target: Dihydroorotate dehydrogenase (quinone), mitochondrial (Homo sapiens, UniProt Q02127)
# Dihydroorotate dehydrogenase (quinone), mitochondrial, sequence (Q02127 whole entry): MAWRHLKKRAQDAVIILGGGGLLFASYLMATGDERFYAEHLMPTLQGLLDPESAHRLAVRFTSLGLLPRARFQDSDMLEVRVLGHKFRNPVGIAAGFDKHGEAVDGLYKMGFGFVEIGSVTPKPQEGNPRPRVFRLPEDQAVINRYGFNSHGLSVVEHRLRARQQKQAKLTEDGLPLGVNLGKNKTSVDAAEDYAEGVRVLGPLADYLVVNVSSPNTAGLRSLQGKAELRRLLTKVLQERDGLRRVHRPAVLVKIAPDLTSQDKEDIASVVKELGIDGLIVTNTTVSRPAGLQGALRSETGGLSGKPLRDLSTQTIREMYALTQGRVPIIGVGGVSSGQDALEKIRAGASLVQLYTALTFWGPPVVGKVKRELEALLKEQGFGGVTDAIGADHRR
# Description: Inhibition of ubiquinone binding site of human dihydroorotate dehydrogenase
Compound,pIC50 [1],pKi [1],pIC50 [2],pKi [2]
C/C(O)=C(\C#N)C(=O)Nc1ccc(-c2ccccc2)cc1Cl,4.29,5.22,6.49,7.41
C/C(O)=C(\C#N)C(=O)Nc1ccc(-c2cccc(Cl)c2Cl)cc1Cl,5.00,5.92,6.48,7.40
C/C(O)=C(\C#N)C(=O)Nc1ccc(-c2cccc(Cl)c2)c(Cl)c1,3.63,4.55,6.72,7.64
C/C(O)=C(\C#N)C(=O)Nc1ccc(-c2ccccc2Cl)c(Cl)c1,3.78,4.69,7.66,8.57
C/C(O)=C(\C#N)C(=O)Nc1ccc(-c2ccccc2Cl)cc1C(F)(F)F,5.21,6.14,6.77,7.68
C/C(O)=C(\C#N)C(=O)Nc1ccc(-c2ccccc2)cc1,4.59,5.52,7.05,7.96
N#C/C(C(=O)Nc1ccc(-c2ccccc2)cc1)=C(/O)C1CC1,,,7.28,8.15
COc1ccccc1-c1ccc(NC(=O)/C(C#N)=C(/C)O)c(Cl)c1,5.07,6.00,6.70,7.60
C/C(O)=C(\C#N)C(=O)Nc1ccc(-c2cccc(Cl)c2)cc1C(F)(F)F,4.24,5.17,4.06,4.97
C/C(O)=C(\C#N)C(=O)Nc1ccc(-c2ccccc2Cl)cc1Cl,5.40,6.32,6.74,7.66
C/C(O)=C(\C#N)C(=O)Nc1ccc(-c2ccccc2Cl)cc1,4.32,5.25,6.89,7.80
C/C(O)=C(\C#N)C(=O)Nc1ccc(-c2cccc(Cl)c2Cl)cc1,4.57,5.49,6.70,7.60
C/C(O)=C(\C#N)C(=O)Nc1ccc(-c2cccc(Cl)c2)cc1Cl,4.31,5.24,5.82,6.72
N#C/C(C(=O)Nc1ccc(C(F)(F)F)cc1)=C(/O)C1CC1,4.03,4.96,6.93,7.85
C/C(O)=C(\C#N)C(=O)Nc1ccc(-c2c(Cl)cccc2Cl)cc1Cl,4.99,5.92,4.78,5.70
CCOc1cccc(-c2ccc(NC(=O)/C(C#N)=C(/C)O)cc2)c1,3.74,4.67,6.89,7.80
